Series [1] is described as follows: Cytotoxicity against human HepG2 cells assessed as reduction in cell viability measured after 3 days by CellTiterGlo Luminescent assay. It counts as toxicity, cell-based. The following applies: time 3 day.
Series [2] is described as follows: Cytotoxicity against human HEK293T cells assessed as reduction in cell viability measured after 3 days by CellTiterGlo Luminescent assay. It counts as toxicity, cell-based, HEK-293T. The following applies: time 3 day. (In general: ATP-based viability assays read luminescence as a measure of living cells.)
The test system of series [3] is Mycobacterium tuberculosis. In words: Antitubercular activity against Mycobacterium tuberculosis H37Rv assessed as inhibition of bacterial growth incubated for 7 days by Microdilution Alamar Blue assay. The following applies: 168 h, time 7 day. The series is classed as functional.
Series [4] can be described thus: Plasma concentration in mouse at 20 mg/kg, po measured after 8 hrs. The series is classed as ADME, organism-based.
Series [5] in a line: Drug uptake in mouse lungs at 20 mg/kg, po measured after 8 hrs. The following applies: lung, read-out: Drug uptake. The series is classed as ADME, organism-based.

Converted amounts (≈) assume the structure as drawn.

As usually defined, the CC50 is the concentration that lowers cell viability or growth by half. Usually MIC stands for the smallest concentration in the dilution series that meets the test's criterion for growth inhibition. Regarding `CN(C)c1ncn(-c2cc(F)c(COc3ccc(OS(=O)(=O)F)cc3)c(F)c2)n1`, the CC50 at 72 h in series [1] and in series [2] was > 40 µM in each case. In addition, the MIC in series [3] was determined as 0.31 µM (≈ 0.133 µg/mL).
In the case of `CS(=O)(=O)Nc1ncn(-c2cc(F)c(COc3ccc(OS(=O)(=O)F)cc3)c(F)c2)n1`, the results for the concentration at 8 h in series [4] and in series [5] were 2120 ng/mL and 1600 ng/mL, respectively.
Consider `O=S(=O)(F)Oc1ccc(OCc2c(F)cc(-n3cnnc3)cc2F)cc1`, for which the CC50 at 72 h in series [1] and in series [2] was > 40 µM throughout. The minimal inhibitory concentration (MIC) in series [3] was determined as 0.22 µM (≈ 0.0848 µg/mL).

The values above are taken from ChEMBL document CHEMBL5357000, “Synthesis and structure-activity relationships of aryl fluorosulfate-based inhibitors as novel antitubercular agents” (Bioorg Med Chem Lett, 2024).
